Measurements as given in article PMC5362750, “Discovery of Potent, Selective, and Orally Bioavailable Small-Molecule Modulators of the Mediator Complex-Associated Kinases CDK8 and CDK19” (Journal of Medicinal Chemistry, 2016).
Read-outs that look alike come from different tables or passages of the source.

Key:
MNK2 = target: T1, MNK2 (Homo sapiens, UniProt Q9HBH9); experiment: Kinase panel (Millipore); assay type: biochemical; details: 1 µM, ATP at Km
T1 construct: purchased Millipore (KinaseProfiler) kinase panel

beta 3 (h) = target: T2, beta 3 (h) (Homo sapiens, UniProt P13945); experiment: CEREP binding assay; details: antagonist radioligand, read-out: % Inhibition of Control Specific Binding
T2 construct: purchased Millipore (KinaseProfiler) kinase panel

MET = target: T3, MET (Homo sapiens, UniProt P08581); experiment: Kinase panel (Millipore); assay type: biochemical; details: 1 µM, ATP at Km
T3 construct: purchased Millipore (KinaseProfiler) kinase panel

MAO-A = target: T4, MAO-A (Rattus norvegicus, UniProt P21396); experiment: CEREP binding assay; details: antagonist radioligand, read-out: % Inhibition of Control Specific Binding
T4 construct: purchased Millipore (KinaseProfiler) kinase panel

PRAK = target: T5, PRAK (Homo sapiens, UniProt Q8IW41); experiment: Kinase panel (Millipore); assay type: biochemical; details: 1 µM, ATP at Km
T5 construct: purchased Millipore (KinaseProfiler) kinase panel

RIPK2 = RIPK2 (Homo sapiens, UniProt O43353); experiment: Kinase panel (Millipore); assay type: biochemical; details: 1 µM, ATP at Km
MAPK1 = MAPK1 (Homo sapiens, UniProt P27361); experiment: Kinase panel (Millipore); assay type: biochemical; details: 1 µM, ATP at Km
EPHA1 = target: T6, EPHA1 (Homo sapiens, UniProt P21709); experiment: Kinase panel (Millipore); assay type: biochemical; details: 1 µM, ATP at Km
T6 construct: purchased Millipore (KinaseProfiler) kinase panel

IGF-1R = target: T7, IGF-1R (Homo sapiens, UniProt P08069); experiment: Kinase panel (Millipore); assay type: biochemical; details: 1 µM, ATP at Km
T7 construct: purchased Millipore (KinaseProfiler) kinase panel

[1] = male, Wistar, rat, in vivo
HIPK1 = target: T8, HIPK1 (Homo sapiens, UniProt Q86Z02); experiment: Kinase panel (Millipore); assay type: biochemical; details: 1 µM, ATP at Km
T8 construct: purchased Millipore (KinaseProfiler) kinase panel

MC1 = target: T9, MC1 (Mus musculus, UniProt Q01727); experiment: CEREP binding assay; details: agonist radioligand, read-out: % Inhibition of Control Specific Binding
T9 construct: purchased Millipore (KinaseProfiler) kinase panel

CKIT = target: T10, CKIT (Homo sapiens, UniProt P10721); experiment: Kinase panel (Millipore); assay type: biochemical; details: 1 µM, ATP at Km
T10 construct: purchased Millipore (KinaseProfiler) kinase panel

PKBALPHA = PKBALPHA (Homo sapiens, UniProt P31749); experiment: Kinase panel (Millipore); assay type: biochemical; details: 1 µM, ATP at Km
M4 (h) = M4 (h) (Homo sapiens, UniProt P08173); experiment: biochemical; details: read-out: % Inhibition of Control Specific Binding
[2] = test system: APC-mutant SW620 human colorectal carcinoma xenograft
ACK1 = target: T11, ACK1 (Homo sapiens, UniProt Q07912); experiment: Kinase panel (Millipore); assay type: biochemical; details: 1 µM, ATP at Km
T11 construct: purchased Millipore (KinaseProfiler) kinase panel

FP (h) = target: T12, FP (h) (Homo sapiens, UniProt P43088); experiment: CEREP binding assay; details: agonist radioligand, read-out: % Inhibition of Control Specific Binding
T12 construct: purchased Millipore (KinaseProfiler) kinase panel

ULK2 = target: T13, ULK2 (Homo sapiens, UniProt Q8IYT8); experiment: Kinase panel (Millipore); assay type: biochemical; details: 1 µM, ATP at Km
T13 construct: purchased Millipore (KinaseProfiler) kinase panel

PKCGAMMA = PKCGAMMA (Homo sapiens, UniProt P05129); experiment: Kinase panel (Millipore); assay type: biochemical; details: 1 µM, ATP at Km
TEC ACTIVATED = target: T14, TEC ACTIVATED (Homo sapiens, UniProt P42680); experiment: Kinase panel (Millipore); assay type: biochemical; details: 1 µM, ATP at Km
T14 construct: purchased Millipore (KinaseProfiler) kinase panel

ABL(T315I) = ABL(T315I) (Homo sapiens, UniProt P00519, T315I); details: 1 µM, ATP at Km
WNK3 = target: T15, WNK3 (Homo sapiens, UniProt Q9BYP7); experiment: Kinase panel (Millipore); assay type: biochemical; details: 1 µM, ATP at Km
T15 construct: purchased Millipore (KinaseProfiler) kinase panel

EPHB1 = target: T16, EPHB1 (Homo sapiens, UniProt P54762); experiment: Kinase panel (Millipore); assay type: biochemical; details: 1 µM, ATP at Km
T16 construct: purchased Millipore (KinaseProfiler) kinase panel

CAMKIIGAMMA = CAMKIIGAMMA (Homo sapiens, UniProt Q13555); experiment: Kinase panel (Millipore); assay type: biochemical; details: 1 µM, ATP at Km
CHK1 = CHK1 (Homo sapiens, UniProt O14757); experiment: Kinase panel (Millipore); assay type: biochemical; details: 1 µM, ATP at Km
KDR = target: T17, KDR (Homo sapiens, UniProt P35968); experiment: Kinase panel (Millipore); assay type: biochemical; details: 1 µM, ATP at Km
T17 construct: purchased Millipore (KinaseProfiler) kinase panel

CAMKIIBETA = CAMKIIBETA (Homo sapiens, UniProt Q13554); experiment: Kinase panel (Millipore); assay type: biochemical; details: 1 µM, ATP at Km
alpha 2A (h) = alpha 2A (h) (Homo sapiens, UniProt P08913); experiment: biochemical; details: read-out: % Inhibition of Control Specific Binding
TBK1 = target: T18, TBK1 (Homo sapiens, UniProt Q9UHD2); experiment: Kinase panel (Millipore); assay type: biochemical; details: 1 µM, ATP at Km
T18 construct: purchased Millipore (KinaseProfiler) kinase panel

[3] = female, NMRI, mouse, in vivo
TNF-alpha (h) = details: 10 µM, agonist radioligand
CK1GAMMA1 = CK1GAMMA1 (Homo sapiens, UniProt Q9HCP0); experiment: Kinase panel (Millipore); assay type: biochemical; details: 1 µM, ATP at Km
BRSK2 = target: T19, BRSK2 (Homo sapiens, UniProt Q8IWQ3); experiment: Kinase panel (Millipore); assay type: biochemical; details: 1 µM, ATP at Km
T19 construct: purchased Millipore (KinaseProfiler) kinase panel

CDK5/P25 = CDK5/P25 (Homo sapiens, UniProt Q00535); details: 1 µM, ATP at Km
SRC = SRC (Homo sapiens, UniProt P12931); experiment: Kinase panel (Millipore); assay type: biochemical; details: 1 µM, ATP at Km
RSK2 = RSK2 (Homo sapiens, UniProt P51812); experiment: Kinase panel (Millipore); assay type: biochemical; details: 1 µM, ATP at Km
MELK = target: T20, MELK (Homo sapiens, UniProt Q14680); experiment: Kinase panel (Millipore); assay type: biochemical; details: 1 µM, ATP at Km
T20 construct: purchased Millipore (KinaseProfiler) kinase panel

[4] = target: GABAA1 (h) (alpha 1,beta 2,gamma 2) (Homo sapiens, UniProt P14867+P47870); experiment: biochemical; details: read-out: % Inhibition of Control Specific Binding
UT (h) = target: T21, UT (h) (Homo sapiens, UniProt Q9UKP6); experiment: CEREP binding assay; details: agonist radioligand, read-out: % Inhibition of Control Specific Binding
T21 construct: CEREP

NEK6 = target: T22, NEK6 (Homo sapiens, UniProt Q9HC98); experiment: Kinase panel (Millipore); assay type: biochemical; details: 1 µM, ATP at Km
T22 construct: purchased Millipore (KinaseProfiler) kinase panel

EEF-2K = EEF-2K (Homo sapiens, UniProt O00418); experiment: Kinase panel (Millipore); assay type: biochemical; details: 1 µM, ATP at Km
V2 (h) = target: T23, V2 (h) (Homo sapiens, UniProt P30518); experiment: CEREP binding assay; details: agonist radioligand, read-out: % Inhibition of Control Specific Binding
T23 construct: CEREP

T10 sequence (P10721 26-976): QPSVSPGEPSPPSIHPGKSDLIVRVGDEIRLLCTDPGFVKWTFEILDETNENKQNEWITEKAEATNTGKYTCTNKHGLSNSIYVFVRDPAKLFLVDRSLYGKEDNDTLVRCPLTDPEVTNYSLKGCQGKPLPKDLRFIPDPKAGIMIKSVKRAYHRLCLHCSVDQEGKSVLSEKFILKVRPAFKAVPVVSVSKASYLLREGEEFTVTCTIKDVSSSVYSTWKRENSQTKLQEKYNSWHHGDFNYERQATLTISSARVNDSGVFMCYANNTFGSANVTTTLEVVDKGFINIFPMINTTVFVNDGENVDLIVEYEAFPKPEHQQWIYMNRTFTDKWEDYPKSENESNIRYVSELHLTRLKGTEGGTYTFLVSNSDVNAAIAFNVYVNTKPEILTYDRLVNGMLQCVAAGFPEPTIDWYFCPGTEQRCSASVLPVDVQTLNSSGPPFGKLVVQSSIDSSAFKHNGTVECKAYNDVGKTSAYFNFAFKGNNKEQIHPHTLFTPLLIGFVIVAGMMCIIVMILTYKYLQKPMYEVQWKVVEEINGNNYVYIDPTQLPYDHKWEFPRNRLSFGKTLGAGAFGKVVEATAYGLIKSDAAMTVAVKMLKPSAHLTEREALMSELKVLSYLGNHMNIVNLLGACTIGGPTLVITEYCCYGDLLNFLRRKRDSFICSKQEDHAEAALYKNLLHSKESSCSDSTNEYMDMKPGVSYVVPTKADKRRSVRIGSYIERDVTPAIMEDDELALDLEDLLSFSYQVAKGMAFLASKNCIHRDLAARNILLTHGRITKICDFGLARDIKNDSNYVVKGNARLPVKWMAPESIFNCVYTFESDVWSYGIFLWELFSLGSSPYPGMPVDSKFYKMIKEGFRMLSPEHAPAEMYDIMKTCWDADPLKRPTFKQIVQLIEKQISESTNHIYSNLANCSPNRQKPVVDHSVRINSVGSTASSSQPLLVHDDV
alpha 2A (h), sequence (P08913 whole entry): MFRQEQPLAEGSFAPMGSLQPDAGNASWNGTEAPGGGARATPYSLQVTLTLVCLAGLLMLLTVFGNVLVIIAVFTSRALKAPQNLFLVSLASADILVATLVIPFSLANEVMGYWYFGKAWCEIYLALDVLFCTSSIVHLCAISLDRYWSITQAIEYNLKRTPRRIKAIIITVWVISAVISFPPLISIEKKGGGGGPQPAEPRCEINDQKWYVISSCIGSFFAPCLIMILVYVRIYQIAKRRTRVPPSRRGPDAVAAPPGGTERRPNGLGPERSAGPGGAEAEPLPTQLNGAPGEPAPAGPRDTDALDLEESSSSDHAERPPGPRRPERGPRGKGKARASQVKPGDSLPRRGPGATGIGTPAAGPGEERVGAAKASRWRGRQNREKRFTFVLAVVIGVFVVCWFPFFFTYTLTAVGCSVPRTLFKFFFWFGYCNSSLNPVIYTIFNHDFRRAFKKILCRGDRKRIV
GABAA1 (h) (alpha 1,beta 2,gamma 2), sequence (P14867 28-456): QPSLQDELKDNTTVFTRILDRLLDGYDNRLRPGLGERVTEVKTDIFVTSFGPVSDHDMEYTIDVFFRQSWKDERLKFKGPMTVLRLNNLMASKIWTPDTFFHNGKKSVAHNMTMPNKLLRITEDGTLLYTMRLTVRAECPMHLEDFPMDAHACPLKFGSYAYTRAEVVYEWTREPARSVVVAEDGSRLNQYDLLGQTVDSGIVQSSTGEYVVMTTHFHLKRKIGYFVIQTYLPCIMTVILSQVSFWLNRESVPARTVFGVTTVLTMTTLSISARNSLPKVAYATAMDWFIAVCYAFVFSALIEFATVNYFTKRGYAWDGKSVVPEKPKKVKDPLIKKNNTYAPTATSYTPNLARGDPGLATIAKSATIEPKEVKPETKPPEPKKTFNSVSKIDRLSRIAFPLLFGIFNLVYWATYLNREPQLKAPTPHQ
GABAA1 (h) (alpha 1,beta 2,gamma 2), sequence (P47870 25-512 limits assumed): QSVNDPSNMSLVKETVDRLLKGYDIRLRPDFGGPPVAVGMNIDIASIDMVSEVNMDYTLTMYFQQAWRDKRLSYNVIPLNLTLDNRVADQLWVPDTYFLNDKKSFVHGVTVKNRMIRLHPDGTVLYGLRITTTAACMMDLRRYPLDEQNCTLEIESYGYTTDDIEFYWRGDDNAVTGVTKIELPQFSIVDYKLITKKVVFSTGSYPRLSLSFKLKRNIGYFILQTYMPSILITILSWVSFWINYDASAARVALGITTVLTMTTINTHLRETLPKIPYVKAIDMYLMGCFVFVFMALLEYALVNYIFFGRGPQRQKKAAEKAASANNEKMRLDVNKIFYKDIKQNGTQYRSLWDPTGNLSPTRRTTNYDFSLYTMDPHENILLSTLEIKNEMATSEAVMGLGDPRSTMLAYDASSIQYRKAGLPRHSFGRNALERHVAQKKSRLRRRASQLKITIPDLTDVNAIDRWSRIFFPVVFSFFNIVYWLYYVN
GABAA1 (h) (alpha 1,beta 2,gamma 2), sequence (P18507 40-475 partner): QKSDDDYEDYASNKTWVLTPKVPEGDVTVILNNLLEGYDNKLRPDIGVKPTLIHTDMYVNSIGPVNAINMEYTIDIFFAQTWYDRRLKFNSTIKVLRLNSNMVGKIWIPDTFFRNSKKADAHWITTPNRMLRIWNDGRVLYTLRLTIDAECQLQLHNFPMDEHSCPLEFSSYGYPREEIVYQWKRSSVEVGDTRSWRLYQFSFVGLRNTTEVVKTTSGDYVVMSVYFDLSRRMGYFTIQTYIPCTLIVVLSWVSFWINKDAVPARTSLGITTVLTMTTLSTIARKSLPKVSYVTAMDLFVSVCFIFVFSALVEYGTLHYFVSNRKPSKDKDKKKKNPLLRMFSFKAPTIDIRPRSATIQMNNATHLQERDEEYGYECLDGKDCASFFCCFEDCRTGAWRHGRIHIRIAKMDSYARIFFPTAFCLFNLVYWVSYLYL
M4 (h), sequence (P08173 whole entry): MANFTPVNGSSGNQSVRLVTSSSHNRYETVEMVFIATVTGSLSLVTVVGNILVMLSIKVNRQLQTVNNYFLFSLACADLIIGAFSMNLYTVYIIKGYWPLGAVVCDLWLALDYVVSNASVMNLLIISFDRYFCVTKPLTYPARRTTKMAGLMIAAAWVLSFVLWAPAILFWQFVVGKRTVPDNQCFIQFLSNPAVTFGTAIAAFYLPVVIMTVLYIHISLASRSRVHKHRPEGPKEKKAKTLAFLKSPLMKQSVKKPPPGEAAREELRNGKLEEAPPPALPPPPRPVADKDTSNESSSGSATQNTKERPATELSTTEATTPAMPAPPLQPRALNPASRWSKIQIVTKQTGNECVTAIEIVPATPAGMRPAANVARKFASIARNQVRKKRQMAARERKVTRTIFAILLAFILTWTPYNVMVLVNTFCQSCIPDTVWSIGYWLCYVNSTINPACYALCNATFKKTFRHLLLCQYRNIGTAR
CDK5/P25, sequence (Q00535 whole entry): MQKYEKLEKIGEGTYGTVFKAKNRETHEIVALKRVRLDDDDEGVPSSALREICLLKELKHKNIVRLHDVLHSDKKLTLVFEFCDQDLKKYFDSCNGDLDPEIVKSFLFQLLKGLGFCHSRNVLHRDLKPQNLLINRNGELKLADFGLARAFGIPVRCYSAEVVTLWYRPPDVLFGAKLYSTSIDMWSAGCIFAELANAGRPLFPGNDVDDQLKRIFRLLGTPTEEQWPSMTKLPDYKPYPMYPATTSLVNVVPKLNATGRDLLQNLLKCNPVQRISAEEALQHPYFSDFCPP
CDK5/P25, sequence (Q15078 99-307 partner limits assumed): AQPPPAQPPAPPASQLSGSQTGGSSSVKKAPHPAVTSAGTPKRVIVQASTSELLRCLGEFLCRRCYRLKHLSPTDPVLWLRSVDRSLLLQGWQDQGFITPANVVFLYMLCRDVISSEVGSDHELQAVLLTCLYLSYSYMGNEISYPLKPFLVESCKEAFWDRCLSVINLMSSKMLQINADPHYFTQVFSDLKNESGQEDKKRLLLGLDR
T22 sequence (Q9HC98 whole entry): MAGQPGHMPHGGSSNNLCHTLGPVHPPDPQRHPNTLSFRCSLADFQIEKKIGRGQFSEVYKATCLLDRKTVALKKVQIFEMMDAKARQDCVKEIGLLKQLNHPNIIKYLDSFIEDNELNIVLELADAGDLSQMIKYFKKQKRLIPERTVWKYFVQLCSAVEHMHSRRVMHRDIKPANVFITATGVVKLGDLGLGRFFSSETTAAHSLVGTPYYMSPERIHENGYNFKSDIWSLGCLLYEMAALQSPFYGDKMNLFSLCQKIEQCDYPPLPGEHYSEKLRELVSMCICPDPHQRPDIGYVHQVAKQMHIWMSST
T18 sequence (Q9UHD2 whole entry): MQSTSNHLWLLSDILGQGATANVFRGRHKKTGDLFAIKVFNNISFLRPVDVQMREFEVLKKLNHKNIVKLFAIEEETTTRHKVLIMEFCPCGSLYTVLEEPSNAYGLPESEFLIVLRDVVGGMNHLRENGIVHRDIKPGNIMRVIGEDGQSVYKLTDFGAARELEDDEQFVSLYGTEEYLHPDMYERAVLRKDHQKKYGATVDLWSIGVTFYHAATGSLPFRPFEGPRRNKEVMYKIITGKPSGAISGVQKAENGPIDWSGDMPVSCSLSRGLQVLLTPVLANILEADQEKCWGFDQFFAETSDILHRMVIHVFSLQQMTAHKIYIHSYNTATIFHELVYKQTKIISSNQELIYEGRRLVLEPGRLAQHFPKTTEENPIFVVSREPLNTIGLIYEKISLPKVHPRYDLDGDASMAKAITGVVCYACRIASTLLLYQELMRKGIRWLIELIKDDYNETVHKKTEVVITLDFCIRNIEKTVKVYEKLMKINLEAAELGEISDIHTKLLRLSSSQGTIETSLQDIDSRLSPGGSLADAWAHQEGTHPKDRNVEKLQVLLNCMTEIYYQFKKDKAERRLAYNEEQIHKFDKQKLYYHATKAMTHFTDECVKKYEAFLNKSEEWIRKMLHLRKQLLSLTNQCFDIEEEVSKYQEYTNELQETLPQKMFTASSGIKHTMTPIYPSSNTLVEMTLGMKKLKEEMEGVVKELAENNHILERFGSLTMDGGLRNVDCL

In the case of `Cn1ncc2cc(-c3cnc(N)c(Cl)c3N3CCC4(CCNC4=O)CC3)ccc21` [Compound 109, 8-(2-Amino-3-chloro-5-(1-methyl-1H-indazol-5-yl)pyridin-4-yl)-2,8-diazaspiro[4.5]decan-1-one], the “% effect” value (MNK2) is reported as -3%, the inhibition at 10 µM (beta 3 (h)) is reported as -16% and the “% effect” value (MET) is reported as 1%. For the same compound, the inhibition at 10 µM (MAO-A) was 8%, the “% effect” value (PRAK) was 13% and the “% effect” value (RIPK2) was 1%. The “% effect” value (MAPK1) was 7%, the “% effect” value (EPHA1) was 4% and the “% effect” value (IGF-1R) was -26%. The LBF [1] was 34%, the “% effect” value (HIPK1) was 5% and the inhibition at 10 µM (MC1) was -8%. The “% effect” value (CKIT) was -5%, the “% effect” value (PKBALPHA) was 3% and the inhibition at 10 µM (M4 (h)) was 22%. For the same compound, the “T/C (final tumor weights)” value ([2]; 30 mg/kg q.d. oral, P = 0.0241) was 45.8, the tolerability ([2]; 30 mg/kg q.d. schedule) was “well tolerated with no significant body weight loss” and the “% effect” value (ACK1) was -11%. For the same compound, the inhibition at 10 µM (FP (h)) was -1%, the “% effect” value (ULK2) was 12% and the “% effect” value (PKCGAMMA) was -6%. For the same compound, the “% effect” value (TEC ACTIVATED) was -1%, the “% effect” value (ABL(T315I)) was 4% and the “% effect” value (WNK3) was 6%. The “% effect” value (EPHB1) was 3%, the “% effect” value (CAMKIIGAMMA) was 8% and the “% effect” value (CHK1) was -8%. For the same compound, the “% effect” value (KDR) was -26%, the “% effect” value (CAMKIIBETA) was 19% and the inhibition at 10 µM (alpha 2A (h)) was 11%. The “% effect” value (TBK1) was 6%, the LBF [3] was 10% and the “% Inhibition of Control Specific Binding” value (TNF-alpha (h)) was -8%. For the same compound, the “% effect” value (CK1GAMMA1) was -5%, the “% effect” value (BRSK2) was 0% and the “% effect” value (CDK5/P25) was 13%. For the same compound, the “% effect” value (SRC) was 7%, the “% effect” value (RSK2) was -11% and the “% effect” value (MELK) was 3%. The inhibition at 10 µM [4] was -12%, the inhibition at 10 µM (UT (h)) was 33% and the “% effect” value (NEK6) was 4%. For the same compound, the “% effect” value (EEF-2K) was -6% and the inhibition at 10 µM (V2 (h)) was 2%.
